Where two headings read alike, the source gives them in different places.
How the values were obtained:
sc-urokinase (uPA) = biological target: T1, sc-urokinase (uPA) (Homo sapiens, UniProt P00749); assay: In-vitro inhibition of urokinase, chromogenic substrate, Dixon Ki; format: biochemical
T1 construct: purchased Ribosepharm GmbH, Haan, Germany
Description: (§1) The uPA inhibitor activity was determined by incubating 200 μl of Tris buffer (0.05 mol/l, containing the inhibitor, 0.154 mol/l NaCl, 5% ethanol, pH 8.0), 25 μl of substrate (Pefachrome UK or BZ-β-Ala-Gly-Arg-pNA in H2O; Pentapharm Ltd, Basle, Switzerland) and 50 μl of sc-urokinase (Ribosepharm GmbH, Haan, Germany) or another corresponding protease at 25° C. After 3 min, the reaction was interrupted by adding 25 μl of acetic acid (50%) and absorbance at 405 nm was determined by means of a microplate reader (MR 5000, Dynatech, Denkendorf, Germany). The Ki values were determined by linear regression according to Dixon by means of a computer program. The Ki values are the average of at least three determinations, and the standard deviation was below 25%.

F Xa = F Xa (Homo sapiens, UniProt P00742); assay: In-vitro protease inhibition, chromogenic substrate, Dixon Ki; format: biochemical
Description: as §1

Thrombin = Thrombin (Homo sapiens, UniProt P00734); assay: as above; format: biochemical
Description: as §1

Trypsin = biological target: T2, Trypsin (UniProt P00760); assay: as above; format: biochemical
T2 sequence (P00760 1-246): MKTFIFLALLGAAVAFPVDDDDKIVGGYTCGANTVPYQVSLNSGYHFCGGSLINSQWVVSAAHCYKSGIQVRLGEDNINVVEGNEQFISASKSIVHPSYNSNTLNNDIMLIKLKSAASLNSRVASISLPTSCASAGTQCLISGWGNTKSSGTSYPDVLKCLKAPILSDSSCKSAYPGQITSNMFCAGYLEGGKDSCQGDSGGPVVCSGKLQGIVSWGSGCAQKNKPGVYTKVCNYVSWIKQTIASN
Description: The Ki values were determined by linear regression according to Dixon by means of a computer program.

[1] = tested on: rat breast adenocarcinoma cells; details: after i.v. inoculation of tumor cells; cited from earlier work
Plasmin = Plasmin (Homo sapiens, UniProt P00747); assay: In-vitro protease inhibition, chromogenic substrate, Dixon Ki; format: biochemical; details: 25° C., pH 8.0
Description: as §1

[2] = tested on: DU145 tumors (a prostate adenocarcinoma cell line); details: oral, daily dose of 125 to 250 mg/kg/day; cited from earlier work
rat prostate cancer = details: syngeneic rat prostate cancer; cited from earlier work
mouse breast cancer = details: cited from earlier work
[3] = Ki uPA, 25° C., pH 8.0, average of at least three determinations
[4] = read-out: Ki Trypsin; 25° C., pH 8.0
[5] = 25° C., pH 8.0, average of at least three determinations, read-out: Ki uPA
[6] = 25° C., pH 8.0, read-out: Ki F Xa
[7] = 25° C., pH 8.0, read-out: Ki Thrombin
[8] = 25° C., pH 8.0; read-out: Ki Trypsin

F Xa, sequence (P00742 235-488 limits assumed): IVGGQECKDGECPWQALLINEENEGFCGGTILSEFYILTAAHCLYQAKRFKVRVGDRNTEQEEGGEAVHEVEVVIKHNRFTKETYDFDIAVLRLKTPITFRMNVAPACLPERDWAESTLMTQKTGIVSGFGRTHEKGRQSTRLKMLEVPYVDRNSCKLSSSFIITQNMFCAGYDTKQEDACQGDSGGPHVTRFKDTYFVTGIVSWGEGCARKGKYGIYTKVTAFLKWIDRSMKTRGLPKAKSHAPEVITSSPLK
F Xa, sequence (P00742 41-179 partner limits assumed): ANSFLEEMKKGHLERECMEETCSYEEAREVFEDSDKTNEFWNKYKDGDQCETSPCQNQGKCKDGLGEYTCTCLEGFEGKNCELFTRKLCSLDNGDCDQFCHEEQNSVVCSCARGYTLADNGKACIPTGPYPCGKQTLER
Plasmin, sequence (P00747 581-810 limits assumed, species assumed): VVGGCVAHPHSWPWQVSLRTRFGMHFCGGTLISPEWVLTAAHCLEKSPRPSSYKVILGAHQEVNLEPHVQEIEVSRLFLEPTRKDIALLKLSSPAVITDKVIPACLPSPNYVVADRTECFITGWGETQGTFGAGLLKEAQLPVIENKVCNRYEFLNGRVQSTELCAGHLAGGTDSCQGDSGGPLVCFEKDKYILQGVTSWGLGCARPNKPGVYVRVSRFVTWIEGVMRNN
Plasmin, sequence (P00747 97-580 partner limits assumed, species assumed): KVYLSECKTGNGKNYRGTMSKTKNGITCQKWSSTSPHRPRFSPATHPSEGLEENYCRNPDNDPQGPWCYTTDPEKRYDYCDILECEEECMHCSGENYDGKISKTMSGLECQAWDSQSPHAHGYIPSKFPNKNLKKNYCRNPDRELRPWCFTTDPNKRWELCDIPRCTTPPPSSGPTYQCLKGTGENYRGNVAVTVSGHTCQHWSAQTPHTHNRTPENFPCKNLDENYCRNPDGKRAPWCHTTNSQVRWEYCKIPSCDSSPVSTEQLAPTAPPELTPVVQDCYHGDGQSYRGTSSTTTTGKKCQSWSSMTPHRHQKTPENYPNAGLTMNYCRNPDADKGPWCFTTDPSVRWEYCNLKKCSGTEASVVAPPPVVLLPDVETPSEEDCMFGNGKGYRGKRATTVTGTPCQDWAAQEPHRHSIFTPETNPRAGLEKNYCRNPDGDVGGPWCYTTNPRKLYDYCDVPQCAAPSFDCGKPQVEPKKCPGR

SMILES	Ki (sc-urokinase (uPA); [5]) [µM]	Ki (F Xa; [6]) [mM]	Ki (Plasmin) [mM]	Ki (Thrombin; [7]) [mM]	Ki (Trypsin; [8]) [µM]	also measured
CC(C)(c1ccc(OC(=O)NCc2ccc(NC(=N)N)cc2)cc1)c1ccc(OC(=O)NCc2ccc(NC(=N)N)cc2)cc1 [ST 312]						uPA inhibition, result in words (sc-urokinase (uPA)): particularly effective and selective inhibitors; Ki (sc-urokinase (uPA); [3]): 2.8 µM; Ki (sc-urokinase (uPA); Ki value for uPA): > 1000 µM; Ki (F Xa): > 1 mM; Ki (Thrombin): > 1 mM; Ki (Trypsin; [4]): 100 µM
N=C(N)NC(=O)c1nc(Cl)c(N)nc1N [amiloride]						formation of lung metastases [1]: prevents the formation of lung metastases
CC(=O)Nc1ncc(S(=O)(=O)NCc2ccc(NC(=N)N)cc2)s1 [ST 282]	240	> 1	> 1	> 1	> 1000	
COc1cc(COC(=O)NCc2ccc(NC(=N)N)cc2)c([N+](=O)[O-])cc1OC [ST 313]	35	> 1		> 1		
N=C(N)c1ccc(N)cc1 [p-Aminobenzamidine]						growth rate of DU145 tumors [2]: distinct decrease in the growth rate; side effects [2]: negligible
N=C(N)Nc1ccc(N)cc1 [ST 267]	> 1000	> 1	> 1	> 1	> 1000	
CC(C)c1cc(C(C)C)c(S(=O)(=O)NCC(=O)NCc2ccc(NC(=N)N)cc2)c(C(C)C)c1 [ST 298]	42	> 1	> 1	> 1	37	
N=C(N)Nc1ccc(CNC(=O)Oc2ccc(/N=N/c3ccccc3)cc2)cc1 [ST 315]						Ki (sc-urokinase (uPA); [3]): 11 µM; Ki (sc-urokinase (uPA); Ki value for uPA): > 1000 µM; Ki (F Xa): > 1 mM; Ki (Thrombin): > 1 mM; Ki (Trypsin; [4]): 200 µM
N=C(N)Nc1ccc(CNC(=O)Nc2ccccc2)cc1 [ST 301]	29	0.33	0.17	> 1	> 1000	
N=C(N)Nc1ccc(CNC(=O)OC23C[C@H]4C[C@@H](C2)C[C@@H](C3)C4)cc1 [ST 274]	23	> 1	> 1	> 1	> 1000	
CC(=O)Nc1ccc(S(=O)(=O)NCC(=O)NCc2ccc(NC(=N)N)cc2)cc1 [ST 296]	22	> 1	> 1	> 1	42	
N=C(N)Nc1ccc(CNC(=O)NC23C[C@H]4C[C@@H](C2)C[C@@H](C3)C4)cc1 [ST 293]	2.4	> 1	> 1	0.6	46	uPA inhibition, result in words (sc-urokinase (uPA)): particularly effective and selective inhibitors; Ki (sc-urokinase (uPA); read-out: Ki value for uPA): > 1000 µM
N=C(N)c1cc2c(I)cccc2s1 [B428, 4-iodobenzo[b]thiophene-2-carboxamidine]						tumor growth and metastases formation (rat prostate cancer): decrease of tumor growth and metastases formation; primary tumor growth (mouse breast cancer; administered together with the antiestrogen tamoxifen): further decrease in primary tumor growth; tumor growth and metastases formation (mouse breast cancer; syngeneic mouse breast cancer): decrease of tumor growth and metastases formation

Continued, in another order:

Ki (sc-urokinase (uPA); [5]) [µM]	Ki (F Xa; [6]) [mM]	Ki (Plasmin) [mM]	Ki (Thrombin; [7]) [mM]	Ki (Trypsin; [8]) [µM]	SMILES	also measured
51	> 1	> 1	> 1	> 1000	CC(C)(C)COC(=O)NCc1ccc(NC(=N)N)cc1 [ST 271]	
27	> 1	> 1	> 1	> 1000	CCOC(=O)NCc1ccc(NC(=N)N)cc1 [ST 269]	
> 1000	> 1	> 1	> 1	> 1000	N=C(N)Nc1ccc(CN)cc1 [ST 275]	
52	> 1	0.13	> 1	> 1000	CC(C)OC(=O)NCc1ccc(NC(=N)N)cc1 [ST 273]	
12	> 1		> 1	200	N=C(N)Nc1ccc(CNC(=O)OCc2ccc([N+](=O)[O-])cc2)cc1 [ST 311]	
36	> 1	> 1	> 1	> 1000	CC(C)(C)OC(=O)NCc1ccc(NC(=N)N)cc1 [ST 242]	
37	> 1	> 1	> 1	> 1000	CC(C)(C)OC(=O)NCC(=O)NCc1ccc(NC(=N)N)cc1 [ST 294]	
